According to ChEMBL document CHEMBL1201862, “PubChem BioAssay data set” (2004):
Values belong to the compound of their own block, whether it stands above or below them. Activity calls are given as the source filed them.

Columns and labels:
[1] = viability loss in HeLa cells – cytotoxicity control for MgcRacGAP inhibitor project, dose response (AID 624300); assay type: functional
[2] = Luminescence Cell-Based Dose Retest to Confirm Inhibitors of Cancer Stem Cells. [Related pubchem assays (depositor defined):AID2717, AID2721]; assay type: functional; details: Homo sapiens
[3] = molecular target: T1, Rac GTPase-activating protein 1 (Homo sapiens, UniProt Q9H0H5); assay: blockers of MgcRacGAP-driven Rac1 GTP hydrolysis – biochemical, ADP Hunter fluorescence, primary and confirmatory, confirmation (AID 624330); assay type: functional
T1 sequence (Q9H0H5 whole entry): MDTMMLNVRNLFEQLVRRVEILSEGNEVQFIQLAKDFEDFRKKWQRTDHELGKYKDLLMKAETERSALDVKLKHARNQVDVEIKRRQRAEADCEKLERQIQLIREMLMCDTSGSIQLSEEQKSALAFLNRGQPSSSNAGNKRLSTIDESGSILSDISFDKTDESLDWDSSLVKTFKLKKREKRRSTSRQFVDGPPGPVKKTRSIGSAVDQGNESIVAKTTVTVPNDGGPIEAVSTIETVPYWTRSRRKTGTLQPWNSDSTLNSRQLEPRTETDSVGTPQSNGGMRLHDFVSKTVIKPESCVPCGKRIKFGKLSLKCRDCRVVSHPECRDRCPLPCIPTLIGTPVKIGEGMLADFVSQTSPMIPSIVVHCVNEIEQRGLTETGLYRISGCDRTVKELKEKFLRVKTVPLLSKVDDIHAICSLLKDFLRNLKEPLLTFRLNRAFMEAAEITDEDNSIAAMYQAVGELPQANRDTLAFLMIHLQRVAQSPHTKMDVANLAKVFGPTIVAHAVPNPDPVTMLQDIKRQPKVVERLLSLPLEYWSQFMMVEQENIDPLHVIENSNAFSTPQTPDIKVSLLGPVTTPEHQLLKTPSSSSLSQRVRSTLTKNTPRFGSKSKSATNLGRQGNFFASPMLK

[4] = Trypanosoma cruzi growth suppression in host cells – NIH3T3 host cells, beta-gal luminescence, confirmation (AID 2044); assay type: functional, cell-based;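 further: intracellular parasites grown in NIH/3T3 mouse fibroblasts as host cells; luminescent beta-galactosidase reporter signal from transgenic T. cruzi replicating inside host cells; inhibitors lower the luminescence signal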
[5] = NIH3T3 cell viability loss – ATP luminescence, mouse fibroblasts, counter-screen, dose response (AID 2010); assay type: functional, cell-based;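 further: cells exposed to compound for about 90 hours before reading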
[6] = molecular target: T2, High affinity choline transporter 1 (Homo sapiens, UniProt Q9GZV3); assay: human choline transporter blockers, potency – cell-based, 5-point CRC, membrane potential dye, dose response (AID 504840); assay type: functional
T2 sequence (Q9GZV3 whole entry): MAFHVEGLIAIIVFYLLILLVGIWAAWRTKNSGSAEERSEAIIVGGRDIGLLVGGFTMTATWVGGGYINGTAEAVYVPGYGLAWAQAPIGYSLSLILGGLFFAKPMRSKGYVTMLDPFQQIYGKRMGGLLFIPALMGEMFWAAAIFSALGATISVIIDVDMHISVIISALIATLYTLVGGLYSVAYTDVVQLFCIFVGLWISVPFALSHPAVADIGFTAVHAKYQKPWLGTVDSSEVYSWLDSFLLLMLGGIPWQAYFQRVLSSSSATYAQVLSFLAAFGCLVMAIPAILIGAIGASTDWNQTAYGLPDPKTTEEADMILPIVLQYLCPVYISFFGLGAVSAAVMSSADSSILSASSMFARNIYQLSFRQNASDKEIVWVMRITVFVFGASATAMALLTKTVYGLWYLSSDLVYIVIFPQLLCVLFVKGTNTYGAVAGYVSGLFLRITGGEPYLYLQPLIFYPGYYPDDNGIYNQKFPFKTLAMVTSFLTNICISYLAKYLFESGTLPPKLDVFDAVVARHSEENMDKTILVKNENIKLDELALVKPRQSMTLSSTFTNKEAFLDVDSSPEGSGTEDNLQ

[7] = molecular target: Broad substrate specificity ATP-binding cassette transporter ABCG2 (Homo sapiens, UniProt Q9UNQ0); assay: blockers of JC-1 export by ABCG2 – Ig-MXP3 cells, flow cytometry, dose response (AID 1690); assay type: functional
Sequence of Broad substrate specificity ATP-binding cassette transporter ABCG2 (Q9UNQ0 whole entry): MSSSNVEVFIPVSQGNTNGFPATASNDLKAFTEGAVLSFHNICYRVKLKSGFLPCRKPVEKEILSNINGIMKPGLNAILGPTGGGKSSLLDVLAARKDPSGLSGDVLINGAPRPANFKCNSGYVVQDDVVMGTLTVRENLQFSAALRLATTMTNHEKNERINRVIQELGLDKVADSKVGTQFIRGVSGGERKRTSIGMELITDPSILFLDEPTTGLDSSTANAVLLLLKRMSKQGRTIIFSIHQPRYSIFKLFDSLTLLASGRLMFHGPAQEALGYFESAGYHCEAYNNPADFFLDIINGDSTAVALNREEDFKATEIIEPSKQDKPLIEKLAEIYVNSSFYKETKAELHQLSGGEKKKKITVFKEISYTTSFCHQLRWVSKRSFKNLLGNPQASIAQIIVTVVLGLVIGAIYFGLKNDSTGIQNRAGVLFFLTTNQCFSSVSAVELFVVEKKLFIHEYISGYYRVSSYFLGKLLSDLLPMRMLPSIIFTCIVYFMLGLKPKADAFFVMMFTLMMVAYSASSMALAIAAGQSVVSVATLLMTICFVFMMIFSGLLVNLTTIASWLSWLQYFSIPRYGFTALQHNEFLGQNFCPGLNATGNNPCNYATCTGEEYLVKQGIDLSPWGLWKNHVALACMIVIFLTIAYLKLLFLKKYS

[8] = molecular target: ATP-dependent translocase ABCB1 (Homo sapiens, UniProt P08183); assay: inhibition of P-gp mediated JC-1 efflux – Jurkat-DNR cells, flow cytometry, dose response (AID 1689); assay type: functional
Sequence of ATP-dependent translocase ABCB1 (P08183 whole entry): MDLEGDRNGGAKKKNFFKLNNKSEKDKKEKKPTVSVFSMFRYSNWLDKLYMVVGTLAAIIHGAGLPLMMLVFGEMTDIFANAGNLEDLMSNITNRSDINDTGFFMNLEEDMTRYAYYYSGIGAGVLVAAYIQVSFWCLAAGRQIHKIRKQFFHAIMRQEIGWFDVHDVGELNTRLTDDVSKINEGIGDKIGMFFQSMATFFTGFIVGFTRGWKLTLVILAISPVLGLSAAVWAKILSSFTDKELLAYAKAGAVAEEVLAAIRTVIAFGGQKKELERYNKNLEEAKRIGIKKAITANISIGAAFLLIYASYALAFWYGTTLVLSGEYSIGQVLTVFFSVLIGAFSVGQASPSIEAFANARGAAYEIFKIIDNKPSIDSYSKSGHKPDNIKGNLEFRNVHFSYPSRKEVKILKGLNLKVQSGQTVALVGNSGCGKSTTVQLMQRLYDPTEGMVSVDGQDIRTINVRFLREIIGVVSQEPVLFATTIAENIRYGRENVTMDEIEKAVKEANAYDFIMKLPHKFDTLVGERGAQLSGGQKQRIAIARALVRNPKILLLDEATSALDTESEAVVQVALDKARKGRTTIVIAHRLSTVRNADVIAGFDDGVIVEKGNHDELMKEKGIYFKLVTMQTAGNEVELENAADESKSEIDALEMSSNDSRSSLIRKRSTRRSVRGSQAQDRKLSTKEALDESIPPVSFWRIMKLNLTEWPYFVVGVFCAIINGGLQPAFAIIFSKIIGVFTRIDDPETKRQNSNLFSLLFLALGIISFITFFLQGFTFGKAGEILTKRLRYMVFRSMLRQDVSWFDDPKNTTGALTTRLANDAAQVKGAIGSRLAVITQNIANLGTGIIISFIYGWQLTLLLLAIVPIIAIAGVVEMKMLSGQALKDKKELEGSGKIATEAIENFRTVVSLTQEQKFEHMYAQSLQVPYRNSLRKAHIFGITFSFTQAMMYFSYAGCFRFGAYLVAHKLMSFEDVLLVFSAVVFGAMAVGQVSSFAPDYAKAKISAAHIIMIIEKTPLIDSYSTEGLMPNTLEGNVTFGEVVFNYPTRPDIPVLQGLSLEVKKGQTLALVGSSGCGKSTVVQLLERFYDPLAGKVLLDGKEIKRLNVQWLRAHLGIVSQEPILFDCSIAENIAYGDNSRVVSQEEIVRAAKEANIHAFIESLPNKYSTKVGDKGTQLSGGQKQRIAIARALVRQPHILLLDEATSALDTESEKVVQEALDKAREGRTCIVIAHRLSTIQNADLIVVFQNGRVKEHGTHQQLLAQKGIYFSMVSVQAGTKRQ

[9] = molecular target: Galanin receptor type 3 (Homo sapiens, UniProt O60755); assay: Fluorescence-based cell-based primary high throughput dose response assay to identify antagonists of the Galanin Receptor 3 (GalR3).; assay type: functional
Sequence of Galanin receptor type 3 (O60755 whole entry): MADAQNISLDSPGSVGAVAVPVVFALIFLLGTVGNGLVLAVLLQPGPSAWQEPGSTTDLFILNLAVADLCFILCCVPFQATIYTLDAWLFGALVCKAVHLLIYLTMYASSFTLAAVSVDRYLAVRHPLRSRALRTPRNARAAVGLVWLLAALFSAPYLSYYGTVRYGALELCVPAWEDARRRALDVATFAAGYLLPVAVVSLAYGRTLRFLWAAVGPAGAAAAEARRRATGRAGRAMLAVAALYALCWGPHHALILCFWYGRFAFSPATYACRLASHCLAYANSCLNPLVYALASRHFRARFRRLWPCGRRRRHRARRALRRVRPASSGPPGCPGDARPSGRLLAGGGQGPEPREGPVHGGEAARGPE

[10] = cells; assay type: functional, cell-based; details: HEK-CNG
[11] = molecular target: T3, Orexin receptor type 2 (Homo sapiens, UniProt O43614); assay: Counterscreen assay for antagonists of the orexin 1 receptor (OX1R; HCRTR1): Fluorescence-based cell-based dose response assay for antagonists of the orexin 2 receptor (OX2R; HCRTR2), run by assay provider.; assay type: functional
T3 sequence (O43614 whole entry): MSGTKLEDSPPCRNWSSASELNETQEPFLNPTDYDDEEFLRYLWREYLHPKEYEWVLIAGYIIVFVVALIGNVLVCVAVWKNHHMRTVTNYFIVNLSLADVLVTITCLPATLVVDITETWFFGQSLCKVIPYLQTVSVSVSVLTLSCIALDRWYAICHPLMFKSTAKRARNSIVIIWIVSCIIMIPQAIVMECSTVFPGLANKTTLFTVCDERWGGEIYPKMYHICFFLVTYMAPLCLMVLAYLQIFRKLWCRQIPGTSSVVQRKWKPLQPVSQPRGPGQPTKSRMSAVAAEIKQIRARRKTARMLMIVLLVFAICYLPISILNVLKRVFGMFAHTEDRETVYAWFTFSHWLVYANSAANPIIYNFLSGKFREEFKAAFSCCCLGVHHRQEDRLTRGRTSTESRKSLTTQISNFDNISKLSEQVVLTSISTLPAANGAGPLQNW

[12] = molecular target: T3, Orexin receptor type 2; assay: Counterscreen assay for antagonists of the orexin 1 receptor (OX1R; HCRTR1): Homogeneous Time Resolved Fluorescence (HTRF)-based cell-based dose response assay for antagonists of the orexin 2 receptor (OX2R; HCRTR2), run by assay provider.; assay type: functional
[13] = molecular target: T4, Orexin/Hypocretin receptor type 1 (Homo sapiens, UniProt O43613); assay: Homogeneous Time Resolved Fluorescence (HTRF)-based cell-based high throughput dose response assay for antagonists of the orexin 1 receptor (OX1R; HCRTR1). [Related pubchem assays (depositor defined):AID434989, AID435008, AID463079, AID485270, AID492963, AID492964, AID492965, AID493232, AID504717, AID504718]; assay type: functional
T4 sequence (O43613 whole entry): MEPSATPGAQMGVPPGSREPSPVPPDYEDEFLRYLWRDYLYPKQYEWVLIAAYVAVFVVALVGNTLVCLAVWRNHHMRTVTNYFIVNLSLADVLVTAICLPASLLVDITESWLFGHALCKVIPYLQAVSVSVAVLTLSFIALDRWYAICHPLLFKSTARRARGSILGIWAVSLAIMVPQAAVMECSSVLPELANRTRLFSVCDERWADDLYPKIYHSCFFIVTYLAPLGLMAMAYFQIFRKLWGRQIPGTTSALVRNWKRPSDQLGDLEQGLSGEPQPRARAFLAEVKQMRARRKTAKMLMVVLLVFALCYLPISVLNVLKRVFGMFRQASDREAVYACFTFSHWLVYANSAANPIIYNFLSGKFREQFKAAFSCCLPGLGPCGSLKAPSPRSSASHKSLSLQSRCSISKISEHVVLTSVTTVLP

[14] = system: CHO-K1; assay: (§1) Counterscreen for antagonists of the orexin 1 receptor (OX1R; HCRTR1): Homogeneous time resolved fluorescence (HTRF)-based cell-based dose response assay to identify antagonists of the parental CHO-K1 cell line. [Related pubchem assays (depositor defined):AID434989, AID435008, AID463079, AID485270, AID492963, AID492964, AID492965, AID493232, AID504699, AID504701]; assay type: functional; details: Cricetulus griseus
[15] = molecular target: T4, Orexin/Hypocretin receptor type 1; assay: Fluorescence-based cell-based high throughput dose response assay for antagonists of the orexin 1 receptor (OX1R; HCRTR1). [Related pubchem assays (depositor defined):AID434989, AID435008, AID463079, AID485270, AID492963, AID492964, AID492965, AID493232, AID504717, AID504718]; assay type: functional
[16] = as §1, with “Fluorescence-based” for “Homogeneous time resolved fluorescence (HTRF)-based”, “cell-based high throughput” for “cell-based”, “CHO” for “CHO-K1”; assay type: functional
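Wherever AC50 is given: cells exposed to compound for roughly 70 hours or longer before luminescence read.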

Structure (SMILES): CCOCCCNC(=O)/C(C#N)=C/c1ccc([N+](=O)[O-])o1
CC50 [1]: 96.6 µM (active)
AC50 [2]: 5.62 µM (active)
IC50 [3]: 149 µM (active)
EC50 [4]: 3.08 µM (active)
EC50 [5]: 4.2 µM (active)
IC50 [6]: 4.79 µM (active)

EC50 [7]: 0.24 µM (inactive)
EC50 [8]: 5.21 µM (inactive)
Structure (SMILES): Cc1cc(C)n(-c2ccc(Cl)c(C(=O)Nc3cc(C(F)(F)F)ccc3Cl)n2)n1

Structure (SMILES): COc1ccc(C(=O)CSc2nnc(Cn3cnc4ccccc43)o2)cc1
IC50 [9]: 0.891 µM (active)
EC50 [10]: > 29.9 µM (inactive)

Structure (SMILES): CCN(CC)P(=O)(Nc1cccc(C(F)(F)F)c1)c1ccc(N(C)C)cc1NC(=O)c1ccco1 (stereo not given)
EC50 [7]: 2.29 µM (active)
IC50 [11]: 5 µM (active)
IC50 [12]: > 50 µM (inactive)
EC50 [4]: 1.3 µM (active)
EC50 [5]: > 30 µM (not active)
EC50 [8]: 0.998 µM (active)
IC50 [13]: 0.184 µM (active)
IC50 [14]: > 66.2 µM (inactive)
IC50 [15]: 2.29 µM (active)
IC50 [16]: > 49.8 µM (inactive)
